The target in this assay is T1, PPARα (Homo sapiens, UniProt Q07869).
T1 construct: gene PPARA
T1 sequence (Q07869 1-468): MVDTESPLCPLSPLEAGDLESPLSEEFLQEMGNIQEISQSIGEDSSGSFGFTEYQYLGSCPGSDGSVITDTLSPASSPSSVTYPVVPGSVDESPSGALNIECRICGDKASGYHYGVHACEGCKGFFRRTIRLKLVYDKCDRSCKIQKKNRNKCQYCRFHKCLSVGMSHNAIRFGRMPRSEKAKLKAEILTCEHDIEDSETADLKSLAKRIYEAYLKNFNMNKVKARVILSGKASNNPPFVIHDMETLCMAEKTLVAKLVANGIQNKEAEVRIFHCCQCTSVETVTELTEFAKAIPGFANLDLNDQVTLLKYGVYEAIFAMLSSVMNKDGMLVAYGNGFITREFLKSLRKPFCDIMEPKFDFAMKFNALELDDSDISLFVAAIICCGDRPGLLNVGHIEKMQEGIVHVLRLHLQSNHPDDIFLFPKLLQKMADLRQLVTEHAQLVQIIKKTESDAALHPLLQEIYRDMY
Kind of assay: SPR (OpenSPR) with recombinant human PPARα immobilized by amine coupling. Type of assay: binding.

For the molecule `CCCCC(CC)COC(=O)c1ccccc1C(=O)O` (stereo not shown) [MEHP, mono(2-ethylhexyl) phthalate], the Kd turned out to be 627 µM.

The Kd is the constant that tells how readily two partners part at equilibrium.

The values above are taken from paper PMC8754100, “Role of Hepatocyte- and Macrophage-Specific PPARγ in Hepatotoxicity Induced by Diethylhexyl Phthalate in Mice” (Environmental Health Perspectives, 2022).
